Legend:
Experiment in all cases: Cell proliferation experiment (CellTiter Glo, 72 hours)
Format in all cases: cell-based
Ba/F3 EGFR WT = Ba/F3 EGFR WT (Homo sapiens, UniProt P00533); settings: read-out: BaF3 EGFR WT IC50
Procedure, shortened: (§1)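 Ba/F3 cells overexpressing EGFR Δ19del/T790M/C797S or EGFR WT were seeded at 2000 or 3000 cells/well and exposed 72 h to 9 compound concentrations (3-fold, top 10000 or 1111 nM final, 0.1% DMSO). CellTiter-Glo luminescence gave survival inhibition versus controls; IC50 from nonlinear fit.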

Ba/F3-Δ19del/T790M/C797S = Ba/F3-Δ19del/T790M/C797S (Homo sapiens, UniProt P00533, T790M/C797S, cells depend on it, form not given); settings: read-out: Ba/F3/EGFR Δ19del/T790M/C797S IC50
Sequence of Ba/F3-Δ19del/T790M/C797S (P00533 with tags, fused parts or gaps DEL746-750/T790M/C797S, form open): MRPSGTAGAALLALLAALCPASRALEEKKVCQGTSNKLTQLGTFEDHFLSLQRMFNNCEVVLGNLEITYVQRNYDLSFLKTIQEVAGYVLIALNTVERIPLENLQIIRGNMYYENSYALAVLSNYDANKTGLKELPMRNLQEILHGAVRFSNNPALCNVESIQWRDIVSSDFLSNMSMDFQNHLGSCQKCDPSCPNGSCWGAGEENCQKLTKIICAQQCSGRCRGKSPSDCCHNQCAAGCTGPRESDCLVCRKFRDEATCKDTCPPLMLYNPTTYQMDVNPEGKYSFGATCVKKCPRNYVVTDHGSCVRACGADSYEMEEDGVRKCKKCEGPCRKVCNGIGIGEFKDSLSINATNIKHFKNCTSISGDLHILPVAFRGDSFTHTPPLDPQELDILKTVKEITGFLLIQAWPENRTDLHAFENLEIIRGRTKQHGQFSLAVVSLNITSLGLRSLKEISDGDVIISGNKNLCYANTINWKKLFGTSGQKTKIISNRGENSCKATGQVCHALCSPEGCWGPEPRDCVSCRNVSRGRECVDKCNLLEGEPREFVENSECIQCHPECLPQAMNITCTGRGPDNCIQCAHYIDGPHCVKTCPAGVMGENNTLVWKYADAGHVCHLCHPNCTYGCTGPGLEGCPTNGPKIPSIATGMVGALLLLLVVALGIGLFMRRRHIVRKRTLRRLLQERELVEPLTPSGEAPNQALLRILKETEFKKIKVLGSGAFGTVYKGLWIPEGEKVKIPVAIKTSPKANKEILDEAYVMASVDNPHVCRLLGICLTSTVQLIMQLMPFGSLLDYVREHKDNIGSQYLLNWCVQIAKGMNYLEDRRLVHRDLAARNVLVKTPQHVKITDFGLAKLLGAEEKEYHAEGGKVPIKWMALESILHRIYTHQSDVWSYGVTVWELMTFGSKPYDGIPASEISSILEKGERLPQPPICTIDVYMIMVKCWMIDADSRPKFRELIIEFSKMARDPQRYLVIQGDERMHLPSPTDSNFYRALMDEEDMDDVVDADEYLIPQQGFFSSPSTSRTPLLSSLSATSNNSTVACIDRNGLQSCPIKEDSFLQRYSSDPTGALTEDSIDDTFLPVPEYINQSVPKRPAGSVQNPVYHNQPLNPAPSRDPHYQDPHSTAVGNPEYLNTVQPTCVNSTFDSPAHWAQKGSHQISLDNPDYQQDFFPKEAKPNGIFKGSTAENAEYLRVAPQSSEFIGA
Procedure, shortened: as §1

[1] = system: human epidermal cancer cells A431 carrying EGFR WT; settings: Homo sapiens, A-431
Procedure, shortened: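 Cells seeded at 2000 or 3000/well and exposed 72 h to 9-point 3-fold dilutions, top final 10000 nM or 1111 nM, 0.1% DMSO. Viability by CellTiter-Glo luminescence. Inhibition relative to cell and medium controls; IC50 by four-parameter nonlinear regression.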

Sequence of Ba/F3 EGFR WT (P00533 whole entry, stated change not applied): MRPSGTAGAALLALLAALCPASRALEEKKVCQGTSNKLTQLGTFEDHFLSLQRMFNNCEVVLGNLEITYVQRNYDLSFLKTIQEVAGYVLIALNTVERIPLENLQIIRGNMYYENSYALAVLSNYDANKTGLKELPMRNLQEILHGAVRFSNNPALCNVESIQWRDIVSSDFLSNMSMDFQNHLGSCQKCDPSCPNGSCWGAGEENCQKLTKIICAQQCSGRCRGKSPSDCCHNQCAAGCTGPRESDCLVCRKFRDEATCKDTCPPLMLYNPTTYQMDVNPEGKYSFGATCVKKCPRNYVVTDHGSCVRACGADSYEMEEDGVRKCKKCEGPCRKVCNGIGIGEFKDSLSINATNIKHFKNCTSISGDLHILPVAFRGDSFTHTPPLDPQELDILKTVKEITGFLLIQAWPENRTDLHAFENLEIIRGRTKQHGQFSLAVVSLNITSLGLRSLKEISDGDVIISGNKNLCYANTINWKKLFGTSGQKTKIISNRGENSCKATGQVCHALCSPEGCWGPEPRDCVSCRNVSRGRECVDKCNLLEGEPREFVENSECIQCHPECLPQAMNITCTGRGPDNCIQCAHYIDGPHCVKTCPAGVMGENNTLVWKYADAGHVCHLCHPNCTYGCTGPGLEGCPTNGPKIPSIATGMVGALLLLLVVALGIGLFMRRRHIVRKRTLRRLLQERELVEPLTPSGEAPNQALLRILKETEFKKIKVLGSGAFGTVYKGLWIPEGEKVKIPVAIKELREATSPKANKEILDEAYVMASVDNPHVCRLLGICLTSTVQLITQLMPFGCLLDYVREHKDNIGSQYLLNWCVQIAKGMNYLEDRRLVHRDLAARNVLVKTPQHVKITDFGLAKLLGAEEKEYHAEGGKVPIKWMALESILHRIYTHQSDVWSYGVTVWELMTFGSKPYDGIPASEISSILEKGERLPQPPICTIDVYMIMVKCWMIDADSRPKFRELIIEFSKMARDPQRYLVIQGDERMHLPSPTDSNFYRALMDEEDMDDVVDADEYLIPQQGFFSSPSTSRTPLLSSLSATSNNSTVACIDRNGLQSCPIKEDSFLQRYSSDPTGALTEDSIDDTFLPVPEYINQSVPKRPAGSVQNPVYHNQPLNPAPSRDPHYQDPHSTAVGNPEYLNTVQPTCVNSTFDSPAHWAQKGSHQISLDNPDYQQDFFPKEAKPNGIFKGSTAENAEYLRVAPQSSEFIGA

Molecule `COc1cc(N2CCC(N3CCN(C)CC3)CC2)c(C)cc1Nc1ncc(Br)c(Nc2ccc3nc(C4CC4)ccc3c2P(C)(C)=O)n1` [Compound J-022, (6-((5-Bromo-2-((2-methoxy-5-methyl-4-(4-(4-methylpiperazin-1-yl)piperidin-1-yl)phenyl)amino)pyrimidin-4-yl)amino)-2-cyclopropylquinolin-5-yl)dimethylphosphine oxide] has a GI50 (Ba/F3 EGFR WT) of 151 nM, a GI50 (Ba/F3-Δ19del/T790M/C797S) of 6.8 nM and an IC50 [1] of 1130 nM.
